From patent US20180051284A1, “INHIBITORS OF MIR-17-92 CLUSTER FOR ANTI-TUMOR ACTIVITY IN MULTIPLE MYELOMA AND OTHER MALIGNANCIES” (priority 2014, published 2018)
l = locked nucleic acid (LNA); d = 2'-deoxy (DNA)

Assays:
AMO1/abzb xenografts = test: In vivo tumor growth of Bortezomib-refractory AMO1/abzb xenografts (IVIS); design: species or system mice; conditions: I.P. Bortezomib 1 mg/kg; Bortezomib-refractory model
Text: Male CB-17 severe combined immunodeficient (SCID) mice (6- to 8-weeks old; Harlan Laboratories, Inc., Indianapolis) were housed and monitored in our Animal Research Facility. All experimental procedures and protocols had been approved by the Institutional Ethical Committee (Magna Graecia University) and conducted according to protocols approved by the National Directorate of Veterinary Services (Italy). In accordance with institutional guidelines, mice were sacrificed when tumors reached 2 cm in diameter or in the event of paralysis or major compromise, to prevent unnecessary suffering. Animal experimental procedures have been performed as in previous reports (Di Martino et al, CCR 2012; Di Martino el al. Oncotarget 2013, Di Martino et al PlosOne 2014). […] Mice were also inoculated with 5×10^6 luciferase gene-marked U266, AMO-1, AMO-1/abzb, treatments were performed intraperitoneally (i.p.), and tumor volume were measured by IVIS Lumina II.
In vivo anti-MM activity of LNA gapmer_06 was next evaluated in NOD/SCID mice bearing subcutaneous AMO1 xenografts. […] Tumors volume were measured using IVIS LUMINA II Imaging We next evaluate the in vivo activity in Bortezomib-refractory model of human MM. […] Tumors volume were measured using IVIS LUMINA II Imaging System.

[1] = test system: miR-17-92 primary transcript (pri-miRs) and mature miR-17-92 cluster members; test: q-RT-PCR of miR-17-92 member family and two pri-miRs after transfection of MM cells; assay type: cell-based, Human; conditions: 48 hours after transfection with 25 nM; NCI-H929 and RPMI-8226 cells; relative to RNase-free water
Procedure: 3×10^5 cells were transfected using Neon Transfection System (Invitrogen, Calif.,U.S.), (2 pulses at 1150, 30ms). The transfection efficiency evaluated by flow-cytometric analysis relative to a FAM dye—labeled anti-miR—negative control reached 85% to 90%.
Reverse transcription (RT) of both primary and mature miRNAs was performed using TaqMan® MicroRNA Assays, following a procedure for multiplexing the RT step (Life Technologies, Publication Part Number 4465407). Briefly, 500 ng of total RNA, prepared with the TRIzol® Reagent (Invitrogen), underwent reverse transcription by the Taq-Man® MicroRNA RT Kit. In this reaction, the RT primer pool was composed by the individual RT primers for each microRNA belonging to the miR-17-92 cluster and two RT primers to allow the reverse transcription of the miR-17-92 primary miRNA. Real-time PCR was performed using TaqMan® MicroRNA Assays together with the TaqMan® Universal PCR Master Mix on an ViiA7 System (Life Technologies). Both primary and mature microRNAs expressions were relatively quantified using the 2-ΔΔCt method (Applied Biosystems User Bulletin No. 2), and expressed as the relative quantity of target miRNA normalized to the RNU44 (assay ID 001094) housekeeping gene. Comparative real-time polymerase chain reaction (RT-PCR) was performed in triplicate, including no-template controls. Relative expression was calculated using the comparative cross threshold (Ct) method.
By the use of a custom q-RT-PCR plate specifically designed by us to detect all six mature miR-17-92 members and the primary transcript by two different assays (pri-mir-17/18a/19a and pri-mir-19b1/20a/92a1), we quantified in a panel of 11 MM cell lines the levels of the different miRNAs and pri-miRs.

| Molecule | tumor growth (IVIS tumor volume) (AMO1/abzb xenografts) | downregulation of primary and mature miRNA sequences (q-RT-PCR) [1] |
| --- | --- | --- |
| CC(C)C[C@H](NC(=O)[C@H](Cc1ccccc1)NC(=O)c1cnccn1)B(O)O [Bortezomib, reference compound] | no effect on tumor-growth | – |
| gapmer_15: LNA/DNA gapmer, SEQ ID 7 (16 mer): +A*+G*+C*A*C*T*C*A*A*C*A*T*C*+A*+G*+C (AGCACTCAACATCAGC; sugars from the 5' end l3 d10 l3, all phosphorothioate, methylation of C not given here) | – | strongest downregulation of primary transcripts and miR-17-92 mature members |
